Assay results from patent US11208391B2, “Polymorphs and new path to synthesize Tafamidis” (AZAD PHARMA AG, priority 2018, dated 2021).

Experiment: Pressure resistance of the crystalline form (hydraulic press, then PXRD/DSC)
Format: physicochemical
Details: pressed 3-5 seconds at 1.5 MPa, Perkin Elmer hydraulic press, 13 mm stamp, material of method 1 (pentane/heptane), compared with non-pressed form
Method: The diffraction measurements were performed at ambient conditions on a PANalytical X'Pert PRO θ-θ diffractometer of 240 mm of radius in reflection geometry, equipped with Cu Kα radiation and a PIXcel detector, operated at 45 kV and 40 mA. Each sample was mounted on a zero-background silicon holder and allowed to spin at 0.25 rev/s during data collection. The measurement angular range was 3.0-40.0° (2θ) with a step size of 0.013°. The scanning speed was 0.0821°/s (40.80 s/step).
Dry samples were pressed at the indicated pressures in a Perkin Elmer hydraulic press using a 13 mm stamp for a time period of 3-5 seconds.
The dried filter cake obtained by the above described method 1 was pressed for 3-5 seconds at 1.5 MPa using a Perkin Elmer hydraulic press and 13 mm tableting stamp. The resulting material was subjected to a DSC and a PXRD-experiment. The results are depicted in FIG. 13 (DSC) and FIG. 14 (PXRD). […] This feature renders this polymorph suitable for processing in the course of tableting, especially.

CNC[C@H](O)[C@@H](O)[C@H](O)[C@H](O)CO.O=C(O)c1ccc2nc(-c3cc(Cl)cc(Cl)c3)oc2c1 [crystalline Tafamidis meglumine, 2-(3,5-dichlorophenyl)-1,3-benzoxazole-6-carboxylic acid * (2R,3R,4R,5S)-6-(methyl-amino)-hexane-1,2,3,4,5-pentol]
PXRD diffraction pattern / structure of the crystalline form upon pressure treatment: does not change upon pressure treatment
PXRD diffraction pattern / structure of the crystalline form upon pressure treatment (listed as crystalline form): insensitive to pressure
